Source: publication PMC8280143, “A novel dephosphorylation targeting chimera selectively promoting tau removal in tauopathies” (Signal Transduction and Targeted Therapy, 2021)
Entries after “also recorded” stand apart in the source; their conditions may differ.

Legend:
[1] = test system: dentate granular cells of Tau368 mice; test: Sparse labeling: dendritic spine density and mossy fiber puncta area; assay type: in vivo, mouse
Procedure: For 2-month male C57BL/6 mice, 10 mM FITC-labeled or unlabeled-DEPTAC were directly injected through the tail vein or lateral ventricle for the evaluation of BBB-penetrability. For 9-month 3×Tg AD mice or Tau368 (20–30 g body weight), unlabeled-DEPTAC (5 mM, 1 μL for each time) was delivered for once into the lateral ventricle through direct stereotaxic injection, or repeatedly administrated through guiding cannulas (RWD, Shenzhen, China) implanted into the lateral ventricle once every 3 days for a consecutive month to test its dephosphorylation efficiency. Mice were restricted in a custom designed device and stayed awake during drug administration, and sacrificed at 24 h post the single or last DEPTAC administration.
A total volume of 0.3 μL mixture of AAV-CaMKIIα-Cre (5.21E+07) and AAV-EF1α-DIO-mCherry (3.24E+12) (1:1 vol/vol) was stereotaxically injected into the dDG of Tau368 mice 1 month following the beginning of dox or normal drinking water administration. Dox was stopped 1-month post AAVs injection, and DEPTAC were delivered through lateral ventricle for a consecutive month. Behavioral tests were performed after the DEPTAC administration, and mice were killed after behavioral tests. Hippocampal sections of 60 μm were obtained, and fluorescent images were taken by a two-photon laser-scanning confocal microscope (LSM710, Zeiss). The dendrite complexity of granular cells in the dorsal dentate gyrus was evaluated by Sholl analysis using Simple Neurite Tracer plugin and ImageJ (Fiji) software. Dendrite spine density and the averaged area of mossy fiber punctas were evaluated using ImageJ by an experimenter blinded from mice groupings. It should be noted that the fluorescence-labeled mossy fibers assembled densely in the CA3 subset, the main target area of mossy fiber axon terminals, making it difficult to accurately measure the puncta areas (data not shown). Therefore, we chose the hilus of DG subset for the measurement, which we believe should be also valid to indicate the axon plasticity of DG granular cells.

[2] = test system: PP2A-Bα (PPP2R1A); test: Fluorescence polarization competing assay, PP2A-Bα; assay type: binding, human; settings: 2.5 μM PP2A-Bα, 0.1 μM FITC-labeled DEPTAC; 37 °C, 30 min
Procedure: Purified human tau and PP2A-Bα (PPP2R1A) were obtained from AtaGenix (Wuhan, China), and concentrated using ultrafiltration tubes (Beyotime). In basic binding assays, tau or PP2A-Bα was aliquoted into serial dilutions with a buffer containing 20 mM Tris-HCl, 150 mM NaCl, and 0.5 mM 1,4-Dithiothreitol (pH 7.4), and incubated with 0.1 μM FITC-labeled DEPTAC, FITC-labeled control peptide and FITC (9:1 vol/vol), respectively, in a black 384-well plates (Corning) under 37 °C for 30 min. In competition binding assays, a mixture of 2.5 μM tau or PP2A-Bα and 0.1 μM FITC-labeled DEPTAC were incubated with increasing amounts of unlabeled-DEPTAC under 37 °C for 30 min. Fluorescence intensity was measured by a Biotek Synergy 2 microplate reader with the wavelengths of 480 nm (60) (Ex)/560 nm (40) (Em). The polarization measurements were corrected for background contributions to the measured intensity by subtracting the parallel and perpendicular intensity readings by the vehicle-only wells from the intensity readings for each data point. Fluorescence polarization (P) was calculated by the formula P = (I║ − I┴) / (I║ + I┴), where I║ was the intensity of emitted light polarized parallel to the excitation light, and I┴ was the intensity of emitted light polarized perpendicular to the excitation light.

[3] = test system: tau and PP2A-B; test: Co-immunoprecipitation of DEPTAC with tau and PP2A-B in primary neurons; assay type: cell-based; settings: primary cultured rat neurons
Procedure: Primary hippocampal neurons were prepared from E12–E15 days SD rat embryos. Briefly, pregnant rats were acutely executed, hippocampus was dissected on ice and gently minced in DME/F12 (Hyclone) then suspended in 0.125% (vol/vol) trypsin solution at 37 °C for 20 min. Enzymatic activity was stopped by fetal bovine serum. Neurons were initially kept in 10% FBS-containing DME/F12 for 4–6 h, and subsequently cultured in Neurobasal (Hyclone) with 2% B27, 1% glutamax and 1% penicillin–streptomycin (Thermo Fisher Scientific) in dishes pre-coated with 100 μg/mL poly-D-lysine. Serum was gradually removed by replacing half of the medium for each time within the following 2 days. Especially, to inhibit the proteasome-dependent proteolysis, the cultured hippocampal neurons were treated with 5 μM MG132 for 5 h before harvest.
For co-immunoprecipitation, cultured cells were lysed on ice with RIPA buffer for 10 min containing 1:100 PMSF. Protein samples were incubated with protein G agarose (Beyotime) at 4 °C for 2 h, and then centrifuged for 5 min (4 °C, 12,000 rpm). Supernatants were subsequently incubated with specified antibodies and protein G agarose overnight at 4 °C. […] Immunoprecipitants were subsequently analyzed through Western blotting.

[4] = Tau368 mice without dox, n = 3 mice
[5] = dox-treated Tau368 mice, DEPTAC 1 month after stopping dox, *p < 0.05, n = 5 mice

Q: How did the “averaged mossy fiber puncta area, without dox” value [1, 4] turn out when “(1) YQQYQDATADEQG, originates from the porcine β-tubulin 422–434 for recognizing and binding tau proteins.[5],[6] (2) GSGS, a linker for increasing the flexibility of the peptide.[15] (3) KKVAVVRTPPKSP, for recruiting PP2A-Bα,[16] and (4) RRRRRRRR [DEPTAC, DEPhosphorylation TArgeting Chimera; 38 amino acid residues, C185H314N72O56]” was run?
A: only limited effects

Q: What about the “dendritic spine density, without dox” value [1, 4] of the same substance?
A: only limited effects

Q: What about the “averaged area of mossy fiber puncta” value [1, 5] of the same substance?
A: increased; also recorded: enlarged

Q: And the “mushroom-like dendritic spine density” value [1, 5]?
A: significantly increased

Q: And the “total dendritic spine density” value [1, 5]?
A: significantly increased

Q: What about the “reversal of FITC-DEPTAC/PP2A-Bα polarization by increased amount of unlabeled-DEPTAC” value [2] of the same substance?
A: both were reversed

Q: What about the “total tau level over time” value ([3]; 6–24 h of post-DEPTAC treatment) of the same substance?
A: time-dependent decrease; also recorded: gradual decrease

Q: What about the “co-immunoprecipitation of DEPTAC with tau and PP2A-B” value ([3]; DEPTAC antibody, 24 h / 12 h (b9)) of the same substance?
A: detected; also recorded: confirmed
